Reference: paper PMC4977651, “Molecular features of biguanides required for targeting of mitochondrial respiratory complex I and activation of AMP-kinase” (BMC Biology, 2016)
pIC50: −log10 of the molar value. “And” between values parts separate entries of the source, which are not always exact repeats. Equal values may be shown once.

Experiments:
permeabilized 143B cells = assay: ADP-stimulated rotenone-sensitive OCR in permeabilized 143B cells; type: cell-based, human; design: rotenone sensitive OCR after ADP stimulation, individual replicates / rotenone sensitive OCR after ADP stimulation, average: unit not given here; conditions: for rotenone sensitive OCR after ADP stimulation, % of control, average / rotenone sensitive OCR after ADP stimulation, average / rotenone sensitive OCR after ADP stimulation, % of control, individual replicates / rotenone sensitive OCR after ADP stimulation, individual replicates: 143B permeabilised cells; for rotenone sensitive OCR after ADP stimulation, % of control, average / rotenone sensitive OCR after ADP stimulation, average: average of replicates; for rotenone sensitive OCR after ADP stimulation, % of control, individual replicates / rotenone sensitive OCR after ADP stimulation, individual replicates: replicate 1-11
Method: For permeabilized cell experiments, cells were seeded into XF96 plates at 0.9–1.1 × 10^4 per well and incubated for 48 h at 37 °C in 5 % CO2. Then, the growth medium was exchanged for assay buffer containing 3 nM plasma membrane permeabilizer ‘PMP’ (Seahorse Biosciences Inc.), 10 mM glutamate, 10 mM malate, 220 mM mannitol, 70 mM sucrose, 10 mM KH2PO4, 5 mM MgCl2, 1 mM EGTA, 0.2 % fatty acid-free bovine serum albumin (BSA), and 2 mM HEPES (pH 7.4 at 37 °C). […] The biguanides were allowed to accumulate for 30 min, then respiration was […] by the addition of 4 mM ADP. Rotenone was added (2 μM) at the end of the experiment.
Rotenone-sensitive OCRs were calculated by subtracting the rotenone-insensitive rates (determined at the end of the experiment). OCRs were normalized by dividing by the OCR recorded immediately prior to the addition of biguanide. For rate of uptake calculations, the OCRs at time points after biguanide addition were divided by the OCRs at the same time points in control experiments. Data from wells with failed port injections were excluded from the analyses. The respiratory control ratio (RCR) values (state III versus state IV respiration) were ~11 and ~6 for permeabilized MDBK and 143B cells, respectively.

[1] = molecular target: mouse heart mitochondrial membranes (complex I) (Mus musculus, UniProt P03888+P03899+Q91WD5+Q9DC70); assay: NADH:O2 oxidoreduction by mouse heart mitochondrial membranes; type: biochemical; conditions: for HillSlope (best fit value) / pIC50 / LogIC50 (best fit value): Prism variable slope fit; for pIC50: Bottom 0, Top 100, read-out: IC50 (best fit value); for LogIC50 (best fit value): log of IC50 in mM
mouse heart mitochondrial membranes (complex I), sequence (P03899 whole entry): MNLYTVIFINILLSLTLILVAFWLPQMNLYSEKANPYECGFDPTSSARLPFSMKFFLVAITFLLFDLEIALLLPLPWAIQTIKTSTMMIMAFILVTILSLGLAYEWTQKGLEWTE
mouse heart mitochondrial membranes (complex I), sequence (P03888 whole entry): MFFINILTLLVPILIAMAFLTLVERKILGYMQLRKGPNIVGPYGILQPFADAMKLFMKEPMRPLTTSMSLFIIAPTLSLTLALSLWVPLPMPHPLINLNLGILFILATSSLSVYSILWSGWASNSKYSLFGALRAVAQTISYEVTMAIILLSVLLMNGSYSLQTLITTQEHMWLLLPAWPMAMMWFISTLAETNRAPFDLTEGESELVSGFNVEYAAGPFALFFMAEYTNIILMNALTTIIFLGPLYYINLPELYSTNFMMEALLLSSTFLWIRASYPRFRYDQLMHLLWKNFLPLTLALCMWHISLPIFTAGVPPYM
mouse heart mitochondrial membranes (complex I), sequence (Q9DC70 36-224): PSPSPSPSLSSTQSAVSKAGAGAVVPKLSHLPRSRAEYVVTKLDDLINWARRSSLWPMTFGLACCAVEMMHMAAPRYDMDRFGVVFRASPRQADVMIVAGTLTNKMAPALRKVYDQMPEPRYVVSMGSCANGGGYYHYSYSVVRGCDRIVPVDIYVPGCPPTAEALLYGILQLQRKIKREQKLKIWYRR
mouse heart mitochondrial membranes (complex I), sequence (Q91WD5 34-463): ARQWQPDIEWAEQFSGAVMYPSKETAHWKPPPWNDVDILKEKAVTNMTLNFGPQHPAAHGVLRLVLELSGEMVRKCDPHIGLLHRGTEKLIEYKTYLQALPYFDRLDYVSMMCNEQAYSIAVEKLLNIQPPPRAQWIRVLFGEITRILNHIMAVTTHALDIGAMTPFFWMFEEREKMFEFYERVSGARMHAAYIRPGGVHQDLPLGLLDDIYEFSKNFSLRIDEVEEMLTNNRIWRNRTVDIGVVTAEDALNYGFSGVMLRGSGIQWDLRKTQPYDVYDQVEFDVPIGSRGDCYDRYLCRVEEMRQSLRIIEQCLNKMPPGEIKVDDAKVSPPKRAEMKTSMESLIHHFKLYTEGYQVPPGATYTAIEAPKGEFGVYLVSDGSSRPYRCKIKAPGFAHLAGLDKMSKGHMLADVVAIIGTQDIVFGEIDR
Method: (§1) Complex I and mitochondrial membranes were prepared from Bos taurus (bovine) heart. Intact mitochondria were isolated from rat liver and mouse heart and liver. Membranes were prepared from mouse heart mitochondria by 5 s bursts of sonication at 4 °C and collected by centrifugation (75,000 × g, 1 h).
Assays were performed at 32 °C in a SpectraMax 96-well plate reader. NADH:decylubiquinone oxidoreduction by complex I at 0.5 μg mL^−1 was measured in 20 mM Tris-HCl (pH 7.2), 0.15 % soy bean asolectin (Avanti Polar Lipids), and 0.15 % 3-((3-cholamidopropyl)dimethylammonium)-1-propanesulfonate (CHAPS, Merck Chemicals Ltd), with 200 μM decylubiquinone and 200 μM NADH, and monitored using ε340–380(NADH) = 4.81 mM^−1 cm^−1 [23]. Catalysis was initiated by addition of NADH and maximal rates determined by linear regression. NADH:O2 oxidoreduction by membranes was measured similarly but using 5 μg mL^−1 membranes in 10 mM Tris-HCl (pH 7.4) and 250 mM sucrose using 200 μM NADH and supplemented with 0.15 mM horse heart cytochrome c (Sigma-Aldrich Ltd.). Succinate:O2 oxidoreduction was measured using 40 μg mL^−1 membranes in 5 mM succinate in 10 mM Tris-HCl (pH 7.4) as described previously. Control experiments included NaCl (to match the ionic strength) or DMSO, as appropriate.
Experimental values are reported as mean averages ± standard deviation (SD) of technical replicates for large sample sizes and mean averages ± standard error of the mean (SEM) of technical replicates for small sample sizes. Data were analyzed by the unpaired two-tailed Student’s t test. IC50 values were determined using the standard dose-effect relationship (activity (%) = 100 × IC50 / (IC50 + [inhibitor]^m) with the Hill Slope (m) set to unity for purified complex I) and are reported with 95 % confidence intervals.

mouse heart mitochondria = assay: ADP-stimulated rotenone-sensitive OCR in isolated mouse heart mitochondria; type: biochemical; design: rotenone sensitive OCR after ADP stimulation, individual replicates / rotenone sensitive OCR after ADP stimulation, average / rotenone sensitive OCR after 15 mins, average: unit not given here; conditions: for rotenone sensitive OCR after ADP stimulation, % of control, average / rotenone sensitive OCR after ADP stimulation, average: average of replicates; for rotenone sensitive OCR after ADP stimulation, % of control, individual replicates: replicate 1-11; for rotenone sensitive OCR after ADP stimulation, individual replicates: replicate 1-12
Method: as §1
Isolated mitochondria were monitored using a Seahorse XF96 extracellular flux analyzer at 32 °C. Mouse heart mitochondria, and mouse and rat liver mitochondria were plated into XF96 plates at 4 and 16–20 μg per well, respectively, in 220 mM mannitol, 70 mM sucrose, 10 mM KH2PO4, 5 mM MgCl2, 1 mM EGTA, 0.2 % fatty acid-free BSA, and 2 mM HEPES (pH 7.4 at 37 °C) with 10 mM glutamate and 10 mM malate and adhered by centrifugation (2000 × g, 20 min, 4 °C). The medium was supplemented with a further 5 mM glutamate and 5 mM malate and the mitochondria incubated for 15 min. Then two baseline readings were taken before the biguanides were added at IC50/5. […] Rotenone (2 μM) was added at the end of the experiment. Data from wells with failed port injections were excluded from the analyses. The RCR values (state III versus state IV respiration) were 3.4, 4.8, and 4.6 for mouse heart, rat liver, and mouse liver, respectively.

AMPK-α (phospho-Thr172) = assay: AMPK activation, western blot of phospho-AMPK-α in MDBK cells; type: cell-based, Bos taurus; conditions: for p-alpha, average normalised to control: Averages of experiments 1-3, 18 hours; for p-alpha: band intensity
Method: MDBK cells were seeded at 1 × 10^6 cells per 6 cm dish in DMEM containing 10 % FBS. […] After 18 h cells were harvested by a rapid lysis procedure: cells were rinsed with PBS, then lysed using ice-cold buffer containing 50 mM HEPES, 1 mM EDTA, 10 % glycerol, 50 mM NaF, 5 mM sodium pyrophosphate, 1 % Triton-X100, 1 mM dithiothreitol (DTT), and a protease inhibitor cocktail (Roche). The cell lysate was centrifuged at 14,000 × g for 20 min at 4 °C and the protein concentration of the supernatant determined by bicinchoninic acid assay. The lysate was analyzed using Novex 3–12 % bis-Tris gels run in 3-(N-morpholino)propanesulfonic acid (MOPS) buffer (20 μg of protein per lane) followed by transfer to low fluorescence polyvinylidene fluoride membranes by wet transfer. Primary rabbit antibodies for AMPK-β (57C12), AMPK-α (phospho-Thr172) (40H9), and acetyl-coA carboxylase (phospho-Ser79) (Cell Signaling Technology) were incubated overnight with the membrane (1:1000 dilution) in Odyssey blocking buffer at 4 °C. A fluorescent secondary antibody was used (IRDYE800CW from LI-COR Biosciences, 1:20,000 dilution) with a LI-COR Odyssey imaging system.

SMILES | rotenone sensitive OCR after ADP stimulation, % of control, average (permeabilized 143B cells) | rotenone sensitive OCR after ADP stimulation, average (permeabilized 143B cells) | rotenone sensitive OCR after ADP stimulation, % of control, individual replicates (permeabilized 143B cells) | rotenone sensitive OCR after ADP stimulation, individual replicates (permeabilized 143B cells) | HillSlope (best fit value) [1] | pIC50 [1] | LogIC50 (best fit value) [1] | rotenone sensitive OCR after ADP stimulation, % of control, average (mouse heart mitochondria) | rotenone sensitive OCR after ADP stimulation, average (mouse heart mitochondria) | rotenone sensitive OCR after ADP stimulation, % of control, individual replicates (mouse heart mitochondria) | rotenone sensitive OCR after ADP stimulation, individual replicates (mouse heart mitochondria) | p-alpha, average normalised to control (AMPK-α (phospho-Thr172)) | p-alpha / AMPK beta (AMPK-α (phospho-Thr172); Experiment 1, 18 hours) | p-alpha / AMPK beta normalised to control (AMPK-α (phospho-Thr172); Experiment 1, 18 hours) | p-alpha (AMPK-α (phospho-Thr172); Experiment 1, 18 hours) | p-alpha / AMPK beta (AMPK-α (phospho-Thr172); Experiment 2, 18 hours) | p-alpha / AMPK beta normalised to control (AMPK-α (phospho-Thr172); Experiment 2, 18 hours) | p-alpha (AMPK-α (phospho-Thr172); Experiment 2, 18 hours) | p-alpha / AMPK beta (AMPK-α (phospho-Thr172); Experiment 3, 18 hours) | p-alpha / AMPK beta normalised to control (AMPK-α (phospho-Thr172); Experiment 3, 18 hours) | also measured
CC(C)N=C(N)N=C(N)N [compound 4, 1-(diaminomethylidene)-2-(propan-2-yl)guanidine] | 4.94 % of control | 11.79 | -1.48 % of control and 3.88 % of control and 15.33 % of control and 9.59 % of control and 8.04 % of control and 7.71 % of control and 5.26 % of control and 0.97 % of control and -3.74 % of control and 3.83 % of control | -3.53 and 9.26 and 36.59 and 22.89 and 19.19 and 18.41 and 12.55 and 2.31 and -8.93 and 9.14 | -1.082 | 1.52 | 1.478 | 23.15 % of control | 56.07 | 28.98 % of control and 23.60 % of control and 23.95 % of control and 23.54 % of control and 25.71 % of control and 23.25 % of control and 16.50 % of control and 19.68 % of control | 70.20 and 57.15 and 58.01 and 57.01 and 62.27 and 56.30 and 39.95 and 47.67 | 12.85 | 1.65 | 13.27 | 732 | 1.91 | 13.08 | 500 | 2.53 | 12.19 | remaining activity at 620 µM ([1]; inhibitor 0.62 mM, read-out: average % (rate, % of no-inhibitor control)): 103%; remaining activity at 1320 µM ([1]; inhibitor 1.32 mM, read-out: average % (rate, % of no-inhibitor control)): 99.1%; remaining activity at 3120 µM ([1]; inhibitor 3.12 mM, read-out: average % (rate, % of no-inhibitor control)): 93.2%; remaining activity at 6250 µM ([1]; inhibitor 6.25 mM, read-out: average % (rate, % of no-inhibitor control)): 80.8%; remaining activity at 15600 µM ([1]; inhibitor 15.60 mM, read-out: average % (rate, % of no-inhibitor control)): 67.2%; remaining activity at 62500 µM ([1]; inhibitor 62.50 mM, read-out: average % (rate, % of no-inhibitor control)): 30.7%; p-alpha (AMPK-α (phospho-Thr172); Experiment 3, 18 hours): 499
CC(C)N=C(N)N=C(N)NC(C)C [compound 5, N-(propan-2-yl)-1-3-(propan-2-yl)carbamimidamidomethanimidamide] | 45.65 % of control | 108.98 | 36.39 % of control and 47.66 % of control and 76.44 % of control and 36.22 % of control and 38.53 % of control and 52.52 % of control and 38.52 % of control and 38.94 % of control | 86.86 and 113.77 and 182.47 and 86.47 and 91.97 and 125.38 and 91.96 and 92.95 | -1.037 | 3.54 | -0.5351 | 111.59 % of control | 270.26 | 121.74 % of control and 137.11 % of control and 79.19 % of control and 109.33 % of control and 124.83 % of control and 108.07 % of control and 108.05 % of control and 104.41 % of control | 294.85 and 332.07 and 191.79 and 264.79 and 302.34 and 261.73 and 261.69 and 252.86 | 1.21 | 0.13 | 1.05 | 62.5 | 0.17 | 1.19 | 52.5 | 0.29 | 1.38 | inhibition of the OCR (in words) (permeabilized 143B cells; permeabilized 143B cells, biguanide concentration equal to IC50): only limited inhibition; p-alpha (AMPK-α (phospho-Thr172); Experiment 3, 18 hours): 51.1
